For assay [1], the target named is T1, PTP1B (human recombinant, kit BML-AK822) (Homo sapiens, UniProt P18031).
T1 sequence (P18031 1-322 limits assumed): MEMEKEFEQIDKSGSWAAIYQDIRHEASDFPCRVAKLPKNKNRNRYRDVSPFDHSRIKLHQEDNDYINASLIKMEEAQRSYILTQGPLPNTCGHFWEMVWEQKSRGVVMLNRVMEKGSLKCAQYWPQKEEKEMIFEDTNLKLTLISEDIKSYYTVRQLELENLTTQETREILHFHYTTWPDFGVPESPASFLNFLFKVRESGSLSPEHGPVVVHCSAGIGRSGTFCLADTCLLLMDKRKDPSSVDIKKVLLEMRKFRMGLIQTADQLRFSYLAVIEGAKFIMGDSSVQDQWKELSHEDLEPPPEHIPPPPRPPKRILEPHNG
The assay is described as follows: biochemical. Conditions: read-out: % inhibition at 10 µM.

The target in assay [2] is T1, PTP1B (human recombinant, kit BML-AK822). Kind of assay: colorimetric malachite green. The format is biochemical. Conditions: read-out: % inhibition at 10 µM.
For assay [3] the target is unchanged. Kind of assay: colorimetric malachite green. The class given is biochemical.
Assay [4] has the same target. Kind of assay: Lineweaver-Burk with slope replot. The class given is biochemical.

The structures appear in SMILES notation.

For the molecule `Cc1ccc(-c2csc(N(C(=O)Cc3ccccc3)c3ccc(F)cc3)n2)cc1` [compound 17], the inhibition at 10 µM in assay [1] amounted to 60.3%.
Consider `COc1ccc(C(=O)N(C2=NCCS2)c2ccccc2C(F)(F)F)cc1` [II, compound II], for which the inhibition at 10 µM in assay [2] amounted to 48%.
Take `Cc1ccc(-c2csc(N(C(=O)c3ccc(Cl)cc3)c3ccc(F)cc3)n2)cc1` [compound 15]: in assay [2], the inhibition at 10 µM turned out to be 35.2%.
In the case of `O=C(CCc1ccccc1)N(c1ccc(F)cc1)c1nc(-c2ccccc2)cs1` [compound 22], in assay [1], the inhibition at 10 µM turned out to be 69%.
As to `COc1ccc(-c2csc(N(C(=O)c3ccc(Cl)cc3)c3ccc(F)cc3)n2)cc1` [compound 18], the IC50 in assay [3] was 8.8 µM. The inhibition at 10 µM in assay [1] was 56.9%.
`COc1ccc(-c2csc(N(C(=O)CCc3ccccc3)c3ccc(F)cc3)n2)cc1` [compound 19]: in assay [1], the inhibition at 10 µM is 74.7%.
On to `O=C(c1ccc(Cl)cc1)N(c1ccc(F)cc1)c1nc(-c2ccccc2)cs1` [compound 21], for which the inhibition at 10 µM in assay [2] was 37.2%.
Take `COc1ccc(CCN(C(=O)CCc2ccccc2)c2nc(-c3ccc(OC)cc3)cs2)cc1` [compound 37]: the half-inhibitory concentration (IC50) in assay [3] stood at 6.9 µM. In assay [1], the inhibition at 10 µM was determined as 69.9%.
As for `COc1ccc(CCN(C(=O)Cc2ccccc2)c2nc(-c3ccc(OC)cc3)cs2)cc1` [compound 38], the inhibition constant Ki in assay [4] amounted to 8.59 µM. Further, in assay [3], the IC50 is 5.8 µM. Besides, the inhibition at 10 µM in assay [1] amounted to 76.6%.
In the case of `Cc1ccc(-c2csc(N(C(=O)CCc3ccccc3)c3ccc(F)cc3)n2)cc1` [compound 16], in assay [2], the inhibition at 10 µM worked out at 33%.
